Measurements reported in patent US5001115A, “Prodrugs of biologically active hydroxyaromatic compounds” (University of Florida, priority 1989, dated 1991).

Test: Hydrolysis in pH=7.1 buffer at room temperature
Type: physicochemical
Experimental: The compounds: [drawing 4] were prepared similarly to the above product and their hydrolytic properties under similar conditions were evaluated.

## O=C1CCC(=O)N1COc1ccc([N+](=O)[O-])cc1 [(b)]
Similar conditions (pH=7.1 buffer, room temperature)
  half-life: ~6 h

## O=C(NCOc1ccc([N+](=O)[O-])cc1)c1ccccc1 [Compound (a)]
pH=7.1, similar conditions
  hydrolytic stability (in words): completely stable

## O=C1c2ccccc2S(=O)(=O)N1COc1ccc([N+](=O)[O-])cc1 [Example 1, 4-Nitro-1-[1',1',3'-trioxo-(2'H)-1',2'-benzisothiazol-2'-yl]methoxybenzene]
pH=7.1 buffer, room temperature
  half-life: ~0.283 h
